Source: US8536221B2, “Amide derivatives as positive allosteric modulators and methods of use thereof” (AbbVie Inc., priority 2008, dated 2013)

Columns and labels:
[1] = system: formalin-induced nociceptive behavior in mice; test: Formalin-induced persistent nociceptive behavior assay; assay type: in vivo; conditions: 20-45 minutes post formalin injection, 10 mg/kg subcutaneously 10 minutes prior to formalin, versus vehicle
Description: FIG. 3 is a graphical representation of nocifensive response (licking duration) following treatment with vehicle or a PAM (Example 6) followed by exposure to formalin in mice. […] In Phase II (20-45 minutes post formalin injection) a significant reduction (55%) in licking behavior was observed, indicative of pain relief in this time period.
(iv) Formalin-Induced Persistent Nociceptive Behavior Assay
Nociception was assessed using the formalin test. The mice were placed in open plexiglass observation chambers for 30 minutes to allow them to acclimate to their surroundings; then they were removed for formalin administration. Mice were gently restrained while the dorsum of the hind paw was injected with 20 μL of 2.5% formalin into the plantar surface of the right hind paw with a 30-gauge needle. The animals were returned to the chambers and nociceptive behavior was observed immediately after formalin injection. Mirrors were placed in each chamber to enable unhindered observation. Nociceptive behavior was quantified as the time licking the injected paw for continuous 5 minutes (phase I) and 20-45 minutes (phase II), following formalin injection. Formalin-induced flinching/licking behavior was biphasic. The initial acute phase (phase I, 0-5 minutes) was followed by a relatively short quiescent period, which was then followed by a prolonged tonic response (phase II, 20-45 minutes).

human α7 NNR = target: T1, human α7 NNR (Homo sapiens, UniProt P36544); test: Two-electrode voltage-clamp in Xenopus laevis oocytes, potentiation of ACh-evoked α7 currents; assay type: cell-based; conditions: for degree of potentiation: 0.1 mM ACh-evoked α7 currents, normalized to reference PAM at 10 μM taken as 100%, submaximum ACh without PAM as 0%; for EC50: potentiating 0.1 mM ACh-evoked α7 currents in oocytes
T1 construct: expressed in transfected cells; host or cells: Xenopus laevis oocytes injected with cRNA
Description: FIG. 2 is a concentration response curve obtained in the same manner for a PAM (Example 10). […] Normalized PAM potentiation is plotted on the Y-axis as a function of the concentration of the test modulator (depicted along the X-axis).
(i) Two-Electrode Voltage-Clamp in Xenopus laevis Oocytes
X. laevis oocytes were prepared for electrophysiological experiments as described in the literature (see for example, Briggs. C. A., et al., Neutropharmacology, 1995, 34: 583-590; Briggs, C. A. et al., Neutropharmacology, 1998, 37: 1095-1102). In brief, three to four lobes from ovaries of female adult X. laevis frogs were removed and defolliculated after treatment with collagenase type IA (2 mg/mL; Sigma) prepared in low-Ca^2+ Barth's solution (90 mM NaCl, 1.0 mM KCl, 0.66 mM NaNO3, 2.4 mM NaHCO3, 10 mM H-IEPES, 2.5 mM sodium pyruvate, 0.82 mM MgCl2, and 0.5% (v/v) penicillin-streptomycin solution, pH=7.55, Sigma) for about 1.5 hours to about 2 hours at about 18° C. under constant agitation to obtain isolated oocytes. The oocytes were injected with about 4 ng to about 6 ng of human α7 NNR cRNA, kept at about 18° C. in a humidified incubator in modified Barth's solution (90 mM NaCl, 1.0 mM KCl, 0.66 mM NaNO3, 2.4 mM NaHCO3, 10 mM HEPES, 2.5 mM sodium pyruvate, 0.74 mM CaCl2, 0.82 mM MgCl2, 0.5% (v/v) penicillin-streptomycin solution, pH 7.55) and used about 2 to 7 days after injection. Responses were measured by two-electrode voltage clamp using a parallel oocyte electrophysiology test station (Abbott, Abbott Park, Ill.) (see for example, Trimbull, J. D., Maslana, E. S., McKenna, D. G., Nemcek, T. A., Niforatos, W., Pan, J. Y., Parihar, A. S., Shieh, C. C., Wilkins, J. A., Briggs, C. A., and Bertrand, D. High throughput electrophysiology using a fully automated, multiplexed recording system, Receptors Channels, 2003, 9: 19-28). During recordings, the oocytes were bathed in Ba^2+—OR2 solution (90 mM NaCl, 2.5 mM KCl, 2.5 mM BaCl2, 1.0 mM MgCl2, 5.0 mM HEPES, and 0.0005 mM atropine, pH 7.4) to prevent activation of Ca^2+-dependent currents and held at −60 mV at room temperature (about 20° C.). Test compounds were given for ˜60 seconds before agonist application and subsequently in the presence of 0.1 mM ACh.

α7 NNRs = α7 NNRs (Homo sapiens, UniProt P36544); conditions: IMR-32 cells
Sequence of α7 NNRs (P36544 23-502): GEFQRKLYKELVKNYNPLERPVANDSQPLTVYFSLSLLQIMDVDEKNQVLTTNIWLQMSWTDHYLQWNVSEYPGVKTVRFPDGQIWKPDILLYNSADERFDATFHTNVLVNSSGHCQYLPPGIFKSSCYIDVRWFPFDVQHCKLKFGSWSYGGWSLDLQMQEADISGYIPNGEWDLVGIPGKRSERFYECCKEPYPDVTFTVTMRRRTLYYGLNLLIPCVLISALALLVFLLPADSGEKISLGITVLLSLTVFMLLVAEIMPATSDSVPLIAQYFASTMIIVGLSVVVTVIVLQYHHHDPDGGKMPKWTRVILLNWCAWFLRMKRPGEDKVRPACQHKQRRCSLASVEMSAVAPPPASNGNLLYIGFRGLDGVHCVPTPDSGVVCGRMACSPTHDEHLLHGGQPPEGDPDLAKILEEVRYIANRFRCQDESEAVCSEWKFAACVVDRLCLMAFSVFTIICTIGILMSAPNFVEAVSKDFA
Description: (ii) High-Throughput Calcium Flux Assays Using Cells Expressing Endogenous α7 NNRs
As such, PAMs and nicotinic acetylcholine receptor agonists can be identified by using IMR-32 cells that endogenously express various nicotinic receptors including α7 NNRs. […] Accordingly, allosteric modulator compounds described herein can be identified using a fluorescence-based throughput functional assay using cell lines such as IMR-32 neuroblastoma or primary dissociated neurons. […] Any suitable selective α7 agonist can be used.
IMR-32 neuroblastoma cells (ATCC) were grown to confluency in 162 cm^2 tissue culture flasks in minimum essential media supplemented with 10% FBS and 1 mM sodium pyruvate, 0.1 mM non-essential amino acids and 1% antibiotic-antimycotic. […] Calcium flux was measured using a calcium-3 assay kit (Molecular Devices, Sunnyvale, Calif.) or fluo-4. […] Fluorescence measurements were read simultaneously from all the wells by a Fluorometric Imaging Plate Reader (FLIPR) at an excitation wavelength of 480 nm and an emission wavelength of 520 nm. Baseline fluorescence was measured for the first 10 seconds at which 50 μL of 3× concentrations of modulator/test compounds were added to the cell plate and incubated for three to five minutes. The fluorescence intensity was captured every second for the first 1 minute followed by every 2-5 seconds for an additional two to four minutes. […]

T1 sequence (P36544 23-502): as above

Row | degree of potentiation (human α7 NNR) | EC50 (human α7 NNR) | Structure (SMILES) | reduction in licking behavior, Phase II [1] | effect on calcium response elicited by agonist in the presence of allosteric modulator (α7 NNRs)
1 |  |  | O=C(NCc1ccc2[nH]ccc2c1)c1ccc(OCC(F)(F)F)nc1 [Example 6, N-(1H-indol-5-ylmethyl)-6-(2,2,2-trifluoroethoxy)nicotinamide] | 55% | 
2 | 91% | 210 nM | Cn1ccc2cc(CNC(=O)c3ccc(SC(F)(F)F)cc3)ccc21 [Example 10, N-[(1-methyl-1H-indol-5-yl)methyl]-4-[(trifluoromethyl)thio]benzamide] |  | 
3 | 99% | 1100 nM | Cn1ccc2ccc(CNC(=O)c3ccc(SC(F)(F)F)cc3)cc21 [Example 12, N-[(1-methyl-1H-indol-6-yl)methyl]-4-[(trifluoromethyl)thio]benzamide] |  | 
4 |  |  | CCN1C[C@]2(COC(=O)c3ccccc3N3C(=O)C[C@H](C)C3=O)CC[C@H](OC)[C@@]34[C@@H]5C[C@H]6[C@H](OC)[C@@H]5[C@](O)(C[C@@H]6OC)[C@@](O)([C@@H](OC)[C@H]23)[C@@H]14 [methyllycaconitine] |  | abolished the response
